Source: PubChem BioAssay AID192 (DTP/NCI, 2004)
“And” between values parts separate entries of the source, which are not always exact repeats. Equal entries are not always repeated. Inconclusive results and toxic doses are left out.

Test system: BDF1 mice, B16 melanoma ip, median survival T/C
Assay: NCI In Vivo Anticancer Drug Screen. Data for tumor model B16 Melanoma (intraperitoneal) in B6D2F1 (BDF1) mice
Details: endpoint: median survival time, higher = longer survival
Method in brief: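 Values are ratios of treated (T) to vehicle-control (C) measurements of survival or tumor size in tumor-bearing mice.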

[1] = dose: 8.0 mg/kg/injection, schedule: Q01DX009 (ip), vehicle: acid diluted with saline
[2] = dose: 50.0 mg/kg/injection, schedule: Q04DX003 (ip), vehicle: Klucel (hydroxypropylcellulose) (HPC)
[3] = dose: 100.0 mg/kg/injection, schedule: Q04DX003 (ip), vehicle: Klucel (hydroxypropylcellulose) (HPC)
[4] = dose: 200.0 mg/kg/injection, schedule: Q04DX003 (ip), vehicle: Klucel (hydroxypropylcellulose) (HPC)
[5] = dose: 50.0 mg/kg/injection, schedule: Q01DX009 (ip), vehicle: Klucel (hydroxypropylcellulose) (HPC)
[6] = dose: 100.0 mg/kg/injection, schedule: Q01DX009 (ip), vehicle: Klucel (hydroxypropylcellulose) (HPC)
[7] = dose: 200.0 mg/kg/injection, schedule: Q01DX009 (ip), vehicle: Klucel (hydroxypropylcellulose) (HPC)
[8] = dose: 400.0 mg/kg/injection, schedule: Q01DX009 (ip), vehicle: Klucel (hydroxypropylcellulose) (HPC)
[9] = dose: 6.25 mg/kg/injection, schedule: Q01DX009 (ip), vehicle: saline
[10] = dose: 400.0 mg/kg/injection, schedule: Q04DX003 (ip), vehicle: Klucel (hydroxypropylcellulose) (HPC)
[11] = dose: 6.25 mg/kg/injection, schedule: Q01DX009 (ip), vehicle: saline with Tween-80
[12] = dose: 12.5 mg/kg/injection, schedule: Q01DX009 (ip), vehicle: saline with Tween-80
[13] = dose: 25.0 mg/kg/injection, schedule: Q01DX009 (ip), vehicle: saline with Tween-80
[14] = dose: 50.0 mg/kg/injection, schedule: Q01DX009 (ip), vehicle: saline with Tween-80

Q: Which T/C (dose: 2.0 mg/kg/injection, schedule: Q01DX009 (ip), vehicle: saline sonified) does the source give for `CSc1ncnc2c1ncn2C1OC(CO)C(O)C1O` (configuration not stated) here?
A: 95 % of control

Q: What about the T/C (dose: 4.0 mg/kg/injection, schedule: Q01DX009 (ip), vehicle: saline sonified) of the same molecule?
A: 88 % of control

Q: And the T/C (dose: 7.5 mg/kg/injection, schedule: Q01DX009 (ip), vehicle: saline with Tween-80)?
A: 100 % of control

Q: What about the T/C (dose: 8.0 mg/kg/injection, schedule: Q01DX009 (ip), vehicle: saline sonified) of the same molecule?
A: 86 % of control

Q: What about the T/C (dose: 15.0 mg/kg/injection, schedule: Q01DX009 (ip), vehicle: saline with Tween-80) of the same molecule?
A: 97 % of control

Q: What about the T/C (dose: 16.0 mg/kg/injection, schedule: Q01DX009 (ip), vehicle: saline sonified) of the same molecule?
A: 95 % of control

Q: Which results are given for `O=C(Nc1ccccc1Cl)OCC(Cl)(Cl)Cl`?
A: T/C (dose: 75.0 mg/kg/injection, schedule: Q04DX003 (ip), vehicle: Klucel (hydroxypropylcellulose) (HPC)): 96 % of control; T/C (dose: 150.0 mg/kg/injection, schedule: Q04DX003 (ip), vehicle: Klucel (hydroxypropylcellulose) (HPC)): 91 % of control; T/C (dose: 300.0 mg/kg/injection, schedule: Q04DX003 (ip), vehicle: Klucel (hydroxypropylcellulose) (HPC)): 102 % of control

Q: Which T/C [1] does the source give for `CCNCCNc1ccc(NCCNCC)c2c1C(=O)c1ccccc1C2=O` here?
A: 157 % of control

Q: What about the T/C (dose: 16.0 mg/kg/injection, schedule: Q01DX009 (ip), vehicle: acid diluted with saline) of the same molecule?
A: 158 % of control

Q: With `COc1cc(N)c2c(c1N)C(=O)c1ccccc1C2=O` as the molecule, how does the T/C [2] read?
A: 100 % of control

Q: What about the T/C [3] of the same molecule?
A: 103 % of control

Q: What about the T/C [4] of the same molecule?
A: 95 % of control

Q: For `CCOC(=O)C1CC(c2ccccc2)=NN1c1ccccc1` (configuration not stated), which T/C [5] is on record?
A: 97 % of control

Q: What about the T/C [6] of the same molecule?
A: 104 % of control

Q: What about the T/C [7] of the same molecule?
A: 100 % of control

Q: And the T/C [8]?
A: 97 % of control

Q: For `CCOC12c3cc(OC)ccc3N(S(=O)(=O)c3ccc(C)cc3)CC1C2(Br)Br` (configuration not stated), which T/C [5] is on record?
A: 103 % of control

Q: What about the T/C [6] of the same molecule?
A: 93 % of control

Q: And the T/C [7]?
A: 89 % of control

Q: What does the source list for `N#Cc1ccc(Br)cc1[N+](=O)[O-]`?
A: T/C (dose: 0.39 mg/kg/injection, schedule: Q01DX009 (ip), vehicle: Klucel (hydroxypropylcellulose) (HPC)): 93 % of control; T/C (dose: 0.78 mg/kg/injection, schedule: Q01DX009 (ip), vehicle: Klucel (hydroxypropylcellulose) (HPC)): 93 % of control; T/C (dose: 1.56 mg/kg/injection, schedule: Q01DX009 (ip), vehicle: Klucel (hydroxypropylcellulose) (HPC)): 106 % of control

Q: Which T/C (dose: 0.39 mg/kg/injection, schedule: Q01DX009 (ip), vehicle: saline) does the source give for `COc1ccc2c(=O)c(C)c(C)oc2c1CN1CCOCC1` here?
A: 104 % of control

Q: What about the T/C (dose: 0.78 mg/kg/injection, schedule: Q01DX009 (ip), vehicle: saline) of the same molecule?
A: 114 % of control

Q: And the T/C (dose: 1.56 mg/kg/injection, schedule: Q01DX009 (ip), vehicle: saline)?
A: 108 % of control

Q: And the T/C (dose: 3.12 mg/kg/injection, schedule: Q01DX009 (ip), vehicle: saline)?
A: 98 % of control

Q: What about the T/C [9] of the same molecule?
A: 115 % of control

Q: Which T/C (dose: 1.25 mg/kg/injection, schedule: Q04DX003 (ip), vehicle: saline) does the source give for `CC[P+](c1ccccc1)(c1ccccc1)c1ccccc1` here?
A: 97 % of control

Q: And the T/C (dose: 2.5 mg/kg/injection, schedule: Q04DX003 (ip), vehicle: saline)?
A: 93 % of control

Q: And the T/C (dose: 5.0 mg/kg/injection, schedule: Q04DX003 (ip), vehicle: saline)?
A: 95 % of control

Q: How did the T/C (dose: 1.8 mg/kg/injection, schedule: Q01DX009 (ip), vehicle: saline with Tween-80) turn out when `Cc1[nH]c(=O)[nH]c(=O)c1N(CCF)CCCl` was run?
A: 110 % of control

Q: And the T/C (dose: 3.0 mg/kg/injection, schedule: Q01DX009 (ip), vehicle: saline with Tween-80)?
A: 110 % of control

Q: And the T/C (dose: 5.0 mg/kg/injection, schedule: Q01DX009 (ip), vehicle: Klucel (hydroxypropylcellulose) (HPC))?
A: 100 % of control

Q: And the T/C [1]?
A: 123 % of control

Q: And the T/C (dose: 14.0 mg/kg/injection, schedule: Q01DX009 (ip), vehicle: saline with Tween-80)?
A: 165 % of control

Q: What about the T/C (dose: 16.0 mg/kg/injection, schedule: Q01DX009 (ip), vehicle: saline with Tween-80) of the same molecule?
A: 121 % of control

Q: What about the T/C (dose: 16.0 mg/kg/injection, schedule: Q04DX003 (ip), vehicle: acid diluted with saline) of the same molecule?
A: 107 % of control

Q: And the T/C (dose: 16.0 mg/kg/injection, schedule: Q04DX003 (ip), vehicle: saline with Tween-80)?
A: 123 % of control

Q: And the T/C (dose: 32.0 mg/kg/injection, schedule: Q04DX003 (ip), vehicle: acid diluted with saline)?
A: 118 % of control

Q: What about the T/C (dose: 32.0 mg/kg/injection, schedule: Q04DX003 (ip), vehicle: saline with Tween-80) of the same molecule?
A: 180 % of control

Q: With `COc1cc(NC(=O)CC(C)=O)cc2c(C)cc(=O)n(C)c12` as the molecule, how does the T/C [6] read?
A: 96 % of control

Q: And the T/C [7]?
A: 100 % of control

Q: And the T/C [8]?
A: 100 % of control

Q: `CCOC(=O)CCCN(c1ccccc1CC(=O)OCC)S(C)(=O)=O` was tested. Which T/C [3] did it give?
A: 96 % of control

Q: And the T/C [4]?
A: 104 % of control

Q: What about the T/C [10] of the same molecule?
A: 96 % of control

Q: For `Cc1cc(Cl)ccc1NC(=O)Nc1ccc(Cl)c(Cl)c1`, which T/C [2] is on record?
A: 90 % of control

Q: And the T/C [3]?
A: 95 % of control

Q: How did the T/C (dose: 100.0 mg/kg/injection, schedule: Q04DX003 (ip), vehicle: gum acacia) turn out when `Cc1cc(=O)[nH]c(N/N=C/c2ccccc2)n1` was run?
A: 93 % of control

Q: And the T/C (dose: 200.0 mg/kg/injection, schedule: Q04DX003 (ip), vehicle: gum acacia)?
A: 88 % of control

Q: And the T/C (dose: 400.0 mg/kg/injection, schedule: Q04DX003 (ip), vehicle: gum acacia)?
A: 88 % of control

Q: For `CC(=O)CC(=O)Oc1ccccc1OC(C)=O`, which T/C [5] is on record?
A: 94 % of control

Q: What about the T/C [6] of the same molecule?
A: 100 % of control

Q: Which T/C [9] does the source give for `CN(C)CCCCNc1ccc(NCCCCN(C)C)c2c1C(=O)c1c(O)ccc(O)c1C2=O` here?
A: 95 % of control

Q: What about the T/C (dose: 12.5 mg/kg/injection, schedule: Q01DX009 (ip), vehicle: saline) of the same molecule?
A: 93 % of control

Q: And the T/C (dose: 25.0 mg/kg/injection, schedule: Q01DX009 (ip), vehicle: saline)?
A: 90 % of control and 110 % of control

Q: For `COc1ccc(OC(=O)Nc2ccccc2Cl)cc1`, which T/C [3] is on record?
A: 106 % of control

Q: And the T/C [4]?
A: 103 % of control

Q: And the T/C [10]?
A: 103 % of control

Q: What does the source list for `CCN(C(=O)Nc1cccc2ccccc12)c1ccccc1`?
A: T/C [6]: 102 % of control; T/C [7]: 88 % of control; T/C [8]: 91 % of control

Q: How did the T/C (dose: 12.5 mg/kg/injection, schedule: Q01DX009 (ip), vehicle: Klucel (hydroxypropylcellulose) (HPC)) turn out when `CC(C)/C=C(\C#N)C(=O)O` was run?
A: 100 % of control

Q: And the T/C (dose: 25.0 mg/kg/injection, schedule: Q01DX009 (ip), vehicle: Klucel (hydroxypropylcellulose) (HPC))?
A: 100 % of control

Q: What about the T/C [5] of the same molecule?
A: 100 % of control

Q: What does the source list for `CCCCCCCCC(=O)NCCCOC`?
A: T/C [3]: 107 % of control; T/C [4]: 101 % of control; T/C [10]: 93 % of control

Q: With `CCCCCCCCCCCCCCCCCC(=O)[O][Hg][c]1ccccc1` as the molecule, how does the T/C [11] read?
A: 97 % of control

Q: And the T/C [12]?
A: 105 % of control

Q: For `CCCCCCCCCCOCCCCCCCCCC`, which T/C [12] is on record?
A: 95 % of control

Q: What about the T/C [13] of the same molecule?
A: 95 % of control

Q: What about the T/C [14] of the same molecule?
A: 95 % of control

Q: What about the T/C (dose: 200.0 mg/kg/injection, schedule: Q01DX009 (ip), vehicle: saline with Tween-80) of the same molecule?
A: 88 % of control

Q: And the T/C (dose: 400.0 mg/kg/injection, schedule: Q01DX009 (ip), vehicle: saline with Tween-80)?
A: 88 % of control

Q: For `CCN(CC)CCC(=O)c1ccccc1`, which T/C (dose: 3.12 mg/kg/injection, schedule: Q01DX009 (ip), vehicle: saline with Tween-80) is on record?
A: 114 % of control

Q: And the T/C [11]?
A: 108 % of control

Q: What about the T/C [12] of the same molecule?
A: 117 % of control

Q: What about the T/C [13] of the same molecule?
A: 107 % of control

Q: And the T/C [14]?
A: 108 % of control

Q: What about the T/C (dose: 100.0 mg/kg/injection, schedule: Q01DX009 (ip), vehicle: saline with Tween-80) of the same molecule?
A: 107 % of control

Q: `COc1c(O)c2c(c3cc(C(=O)N4CCc5c4c(O)c(OC)c4[nH]c(C(=O)N6CC7CC78C6=CC(=O)c6[nH]cc(C)c68)cc54)[nH]c13)CCN2C(N)=O` (configuration not stated) was tested. Which T/C (dose: 10.0 micrograms/kg/injection, schedule: Q01DX009 (ip), vehicle: other) did it give?
A: 181 % of control

Q: What does the source list for `COC(=O)C1C(O)C(C)C(O)C(C)(O)C=C(C)C2=C3C(=C(C)C(=O)c4c(O)c(c(C)c(OC(C)=O)c43)NC(=O)C(C)=C/C=C\C(C)(O)C(O)C(C)C1O)OCO2` (configuration not stated)?
A: T/C [5]: 94 % of control; T/C [6]: 94 % of control; T/C [7]: 91 % of control
